Where “and” joins values, the source holds several entries; their conditions need not be identical. Equal entries are not always repeated.
Assays:
[1] = calcium carbonate scale inhibition (conductometric titration, supersaturation ratio Sr)
Method: To a 100 mL beaker were added 60 mL of HPLC-grade water and 3 mL of 0.1 M calcium chloride. An appropriate amount (0.5-4 mL) of an aqueous solution of the inhibitor compound of Formula (I) to be tested was then added. The solution was magnetically stirred at a constant speed for all experiments. The sample was then titrated with 0.1 M sodium carbonate. After addition of each 0.2 mL aliquot of sodium carbonate titrant, the solution was mixed for 1 min and then the conductivity of the solution measured.
As titrant is added the conductivity increases in a linear fashion. When the supersaturation point is reached, the conductivity decreases and precipitation begins. This is considered the endpoint of the titration. The resulting titration endpoint volumes are used to calculate a relative supersaturation ratio (Sr). This is the ratio of the supersaturation of calcium carbonate in the presence of the compound of Formula (I) being tested to the value of the supersaturation of water without inhibitor (distilled water plus 3 mL of 0.1 M calcium chloride). Thus, compounds with Sr>1 are displaying scale inhibition.
The scale inhibition performance of various compounds of Formula (I) and comparative compounds were compared at the same molar concentration. These compounds were tested at 60 μM concentration except where noted otherwise. Compound numbers are from Table 1.

[2] = mild steel corrosion inhibition, ASTM G31-72 coupon weight loss
Method: (§1) Corrosion inhibition studies of various compounds of Formula (I) were conducted according to ASTM method G31-72 (2004). The following is the general test method.
(§2) Aqueous solutions of the test compound (900 mL) were prepared with city water for mild steel corrosion studies or a dilute sea salt solution (1000 ppm in deionized water) for copper corrosion studies. The solutions were magnetically stirred at a constant rate in a 1 L beaker and three coupons of either mild steel or copper were suspended in each beaker. After 5 days (steel) or 7 days (copper), the coupons were removed and cleaned according to ASTM method G1-03. Average weight loss was determined for each set of three coupons and then converted to corrosion rate in terms of mils per year (mpy).
These tests compare the corrosion inhibition of compounds of Formula (I), namely from Table 1, in the first set of comparisons, Compound A with Compound 13, and Compound B with Compound 1, and with 2-hydroxypropane-1,2,3-tricarboxylic acid. Thus five samples were tested relative to a blank and a standard, (1-hydroxyethan-1,1-diyl)bis(phosphonic acid), after 5 days at 26 μM concentrations. […] Concentrations were 26 μM.
Additional mild steel corrosion tests were performed at 130 μM concentration of compounds of Formula (I) and comparative compounds for 5 days. The next test compared the corrosion inhibition of Compound 8 with 2,3-dihydroxybutanedioic acid and Compound B, and Compound 4 with (1-hydroxyethan-1,1-diyl)bis(phosphonic acid) and Compound B. Also included was Compound 1 for reference. Concentrations in this set were 130 μM.

[3] = copper corrosion inhibition, ASTM G31-72 coupon weight loss
Method: as §1, §2
The first test of copper corrosion inhibition compared Compound A with Compound 13 (from Table 1), 2-hydroxypropane-1,2,3-tricarboxylic acid, and a commercial inhibitor, Na-TAI.

[4] = 5 days, 130 μM, Table 4 (blank 24 mpy)
[5] = 130 μM, Table 5 (blank 12.5 mpy)

## Salt of Oxyamine (II) and 2,3-Dihydroxybutanedioic acid salt (1:1 molar stoichiometry) [Compound 8]
[1]; 60 μM
  Sr (supersaturation ratio): 1.3
[1]; 120 μM
  Sr (supersaturation ratio): 1.5
[2]; [4]
  Inhibition relative to blank: 44%

## Salt of Oxyamine (II) and Ethanedioic acid salt (1:1 molar stoichiometry [Compound 2]
[2]; [5]
  Inhibition relative to blank: −21%

## Salt of Oxyamine (II) and Butanedioic acid salt (1:1 molar stoichiometry) [Compound 10]
[1]; 60 μM
  Sr (supersaturation ratio): 1.0

## O=C(O)C(O)C(O)C(=O)O (stereo not drawn) [2,3-Dihydroxybutanedioic acid]
[1]; 60 μM
  Sr (supersaturation ratio): 1.0
[2]; [4]
  Inhibition relative to blank: 20%

## O=C(O)CC(O)(CC(=O)O)C(=O)O [2-hydroxypropane-1,2,3-tricarboxylic acid]
[1]; 63 μM
  Sr (supersaturation ratio): 1.2
[2]; 5 days, 26 μM, Table 3, 26 µM
  Inhibition relative to blank: 9.8% and 10%
[3]; 42 μM, Table 7
  Inhibition relative to blank: 9%
[3]; 7 days, 17 μM, Table 6
  Inhibition relative to blank: 0%

## O=C(O)CCC(CC(=O)O)(C(=O)O)P(=O)(O)O (stereo not drawn) [2-phosphonobutane-1,2,4-tricarboxylic acid]
[1]; 5.9 μM
  Sr (supersaturation ratio): 3.0

## [Na+].c1ccc2[n-]nnc2c1 [Na-TAI, sodium salt of 1,2,3-triaza-1H-indene]
[3]; 7 days, 17 μM, Table 6
  Inhibition relative to blank: 71%

## O=C(O)C(O)C(O)C(O)C(O)C(=O)O (stereo not drawn) [2,3,4,5-tetrahydroxyhexanedioic acid]
[1]; 60 μM
  Sr (supersaturation ratio): 1.4

## CC(O)(P(=O)(O)O)P(=O)(O)O [(1-hydroxyethan-1,1-diyl)bis(phosphonic acid)]
[1]; 45 μM
  Sr (supersaturation ratio): 2.5
[1]; 60 μM
  Sr (supersaturation ratio): 4.4
[2]; 5 days, 26 μM, Table 3
  Inhibition relative to blank: 36%
[2]; [4]
  Inhibition relative to blank: 62%

## O=C(O)C(=O)O [Ethanedioic acid]
[2]; [5]
  Inhibition relative to blank: −16%

## O=C(O)CCC(=O)O [Butanedioic acid]
[1]; 60 μM
  Sr (supersaturation ratio): 1.0

## O=P(O)(O)O [Trihydroxidooxidophosphorus]
[2]; [5]
  Inhibition relative to blank: 40%

## Salt of Oxyamine (II) and Trihydroxidooxidophosphorus salt (1:1 molar stoichiometry) [Compound 3]
[2]; [5]
  Inhibition relative to blank: 55%

## CC(O)(P(=O)(O)O)P(=O)(O)O.CCCCCCCCCCOCCCN [Compound 4, Salt of Oxyamine (II) and (1-Hydroxyethan-1,1-diyl)bis(phosphonic acid) (1:1 Molar Stoichiometry)]
[1]; 60 μM
  Sr (supersaturation ratio): 4.3
[2]; [4]
  Inhibition relative to blank: 68%
